The values below come from patent publication US12421253B2 (Mirati Therapeutics, Inc., priority 2020, dated 2025).

Test [1] has as its target T1, KRas^G12D (Homo sapiens, UniProt P01116, G12D).
T1 construct: […]; biotin (biotinylated); purchased Accelegan Inc
Kind of test: KRas binding assay (TR-FRET displacement of Cy5 labelled tracer). Background: Time-resolved FRET reads energy transfer from a long-lived donor to a nearby acceptor.
Procedure: (§2) The ability of a compound to bind to KRas was measured using a TR-FRET displacement assay. […] After a 60-minute incubation at room temperature, the reaction was measured using a BMG LABTECH CLARIO star Plus via TR-FRET. […] The POC values were fit to a 4-parameter IC50 equation and the IC50 value reported.

The target of test [2] is T2, KRas^G12R (Homo sapiens, UniProt P01116, G12R).
T2 construct: […]; biotin (biotinylated); purchased Accelegan Inc
The description is as above.
Procedure: as §2

Test [3] addresses T3, KRas^G12V (Homo sapiens, UniProt P01116, G12V).
T3 construct: […]; biotin (biotinylated); purchased Accelegan Inc
The test is described as above.
Procedure: as §2

For test [4], the system named is ASPC1 cells, pERK. Kind of test: Inhibition of KRas phosphorylation of ERK (Cisbio HTRF Advanced pERK assay). As to conditions: Homo sapiens, ASPC1, 3 h, AsPC-1 cells, read-out: Inhibition (HTRF IC50 nM) of KRas-mediated Phosphorylation of ERK, AsPC-1. The class given is cell-based. The gist of the method: (§1)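 Compound effect on ERK phosphorylation is measured after 3 h exposure of cells, seeded the previous day in RPMI with 10% FBS, to ten 3-fold dilutions starting at 10 uM. Lysates are probed by HTRF for pERK, with trametinib at 0.2 uM defining the minimum signal.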

Test [5] concerns H460 cells, pERK. The test is described as above. As to conditions: Homo sapiens, NCI-H460, 3 hrs, read-out: Inhibition (HTRF IC50 nM) of KRas-mediated Phosphorylation of ERK, H460. The class given is cell-based. The method in brief: as §1
Test [6] concerns H727 cells, pERK. The description is as above. The class given is cell-based. As to conditions: Homo sapiens, NCI-H727, 3 h, read-out: Inhibition (HTRF IC50 nM) of KRas-mediated Phosphorylation of ERK, H727. The gist of the method:
as §1

Test [7] deals with HCT116 cells, pERK. Described as above. As to conditions: Homo sapiens, HCT-116, 3 hrs, read-out: Inhibition (HTRF IC50 nM) of KRas-mediated Phosphorylation of ERK, HCT116. The class given is cell-based. The method in brief: as §1
For test [8], the system named is MKN1 cells, pERK. The description is as above. Conditions: Homo sapiens, MKN-1, 3 h, read-out: Inhibition (HTRF IC50 nM) of KRas-mediated Phosphorylation of ERK, MKN1. Format: cell-based. The gist of the method: as §1
The test system of test [9] is PSN1 cells, pERK. The test is described as above. As to conditions: Homo sapiens, PSN1, 3 h, read-out: Inhibition (HTRF IC50 nM) of KRas-mediated Phosphorylation of ERK, PSN1. The class given is cell-based. The gist of the method: as §1

A value given as a limit tells only on which side of the number the result lay.

A word on the IC50: it is the midpoint of a concentration-inhibition curve.

T2 sequence (P01116 1-169 isoform P01116-2 G12R): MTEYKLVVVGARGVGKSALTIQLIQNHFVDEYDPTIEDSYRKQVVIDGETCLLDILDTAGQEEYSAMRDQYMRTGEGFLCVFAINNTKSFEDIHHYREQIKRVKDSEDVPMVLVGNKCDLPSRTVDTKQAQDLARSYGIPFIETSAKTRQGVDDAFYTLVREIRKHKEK
T1 sequence (P01116 1-169 isoform P01116-2 G12D): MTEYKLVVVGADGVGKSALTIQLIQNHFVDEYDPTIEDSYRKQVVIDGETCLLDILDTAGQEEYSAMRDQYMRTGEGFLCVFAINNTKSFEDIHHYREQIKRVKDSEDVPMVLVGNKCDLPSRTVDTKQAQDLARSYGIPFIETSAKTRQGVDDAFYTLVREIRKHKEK
T3 sequence (P01116 1-169 isoform P01116-2 G12V): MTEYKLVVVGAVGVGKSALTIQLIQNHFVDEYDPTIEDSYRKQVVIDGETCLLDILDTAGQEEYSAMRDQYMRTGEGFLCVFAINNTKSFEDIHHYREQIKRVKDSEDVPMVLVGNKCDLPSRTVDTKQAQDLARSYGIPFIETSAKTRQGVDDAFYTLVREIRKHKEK

As to `C[C@@]1(O)CCCN(c2nc(OC[C@@]34CCCN3C[C@H](F)C4)nc3c2CCN(c2cc(O)cc4ccc(F)c(Cl)c24)C3)C1` [Example 68, (R)-1-(7-(8-chloro-7-fluoro-3-hydroxynaphthalen-1-yl)-2-(((2R,7aS)-2-fluorohexahydro-1H-pyrrolizin-7a-yl)methoxy)-5,6,7,8-tetrahydropyrido[3,4-d]pyrimidin-4-yl)-3-methylpiperidin-3-ol], the IC50 in test [1] was not above 2 nM; in test [2], 3 nM; in [3], not above 2 nM; in test [4] it was 112 nM; in test [5], 421 nM; in [6], 423 nM. Moreover, the values for the IC50 in [7], in test [8] and in test [9] were 1170 nM, 71 nM and 2260 nM, respectively.
In the case of `CCc1c(F)ccc2cc(O)cc(N3CCc4c(nc(OC[C@@]56CCCN5C[C@H](F)C6)nc4N4CCCc5ncccc5C4)C3)c12` [Example 180, 4-(4-(8,9-dihydro-5H-pyrido[3,2-c]azepin-6(7H)-yl)-2-(((2R,7aS)-2-fluorohexahydro-1H-pyrrolizin-7a-yl)methoxy)-5,6-dihydropyrido[3,4-d]pyrimidin-7(8H)-yl)-5-ethyl-6-fluoronaphthalen-2-ol], the IC50 in test [1] amounted to 4 nM; in [2], 6 nM; in test [3] it was 8 nM; in test [4], 383 nM; in test [5] it was 1560 nM; in test [6], 600 nM. In addition, the half-maximal inhibitory concentration (IC50) in test [8] was 462 nM; in test [9] it was not below 10000 nM.
Regarding `CCc1c(F)ccc2cc(O)cc(N3CCc4c(nc(OC[C@@]56CCCN5C[C@H](F)C6)nc4N4CCCC5(CNC(=O)C5)C4)C3)c12` (stereo partly drawn) [Example 197, 7-(7-(8-ethyl-7-fluoro-3-hydroxynaphthalen-1-yl)-2-(((2R,7aS)-2-fluorohexahydro-1H-pyrrolizin-7a-yl)methoxy)-5,6,7,8-tetrahydropyrido[3,4-d]pyrimidin-4-yl)-2,7-diazaspiro[4.5]decan-3-one], the half-inhibitory concentration (IC50) in test [1] was not above 2 nM; in [2], not above 2 nM; in test [3], not above 2 nM; in test [4] it was 136 nM; in test [5], 285 nM; in test [6] it was 313 nM. Also, the 50% inhibitory concentration (IC50) is 499 nM in [7], 12 nM in test [8] and 1690 nM in test [9].
Consider `Nc1cc2n(n1)CCCN(c1nc(OC[C@@]34CCCN3C[C@H](F)C4)nc3c1CCN(c1cc(O)cc4ccc(F)c(Br)c14)C3)C2` [Example 212, 4-(4-(2-amino-7,8-dihydro-4H-pyrazolo[1,5-a][1,4]diazepin-5(6H)-yl)-2-(((2R,7aS)-2-fluorohexahydro-1H-pyrrolizin-7a-yl)methoxy)-5,6-dihydropyrido[3,4-d]pyrimidin-7(8H)-yl)-5-bromo-6-fluoronaphthalen-2-ol], for which the half-inhibitory concentration (IC50) in test [1] was not above 2 nM; in [2], not above 2 nM; in [3], not above 2 nM; in test [4], 111 nM; in test [5], 545 nM; in test [6], 268 nM. Besides, the IC50 in test [7] is 1110 nM; in [8], 61 nM; in test [9], not below 10000 nM.
As for `CC1(O)COCCN(c2nc(OC[C@@]34CCCN3C[C@H](F)C4)nc3c2CCN(c2cc(O)cc4ccc(F)c(Br)c24)C3)C1` (stereo partly drawn) [Example 219, 4-(7-(8-bromo-7-fluoro-3-hydroxynaphthalen-1-yl)-2-(((2R,7aS)-2-fluorohexahydro-1H-pyrrolizin-7a-yl)methoxy)-5,6,7,8-tetrahydropyrido[3,4-d]pyrimidin-4-yl)-6-methyl-1,4-oxazepan-6-ol], the IC50 was determined as 3 nM in test [1]; 4 nM in test [2]; 3 nM in [3]; 448 nM in test [4]; 1020 nM in test [5]; 1580 nM in test [6]. Besides, the results for the IC50 in test [8] and in [9] were 97 nM and 6120 nM, respectively.
For `C[C@@]1(O)CCCN(c2nc(OC[C@@]34CCCN3C[C@H](F)C4)nc3c2CCN(c2cc(O)cc4ccc(F)c(Br)c24)C3)C1` [Example 222, (R)-1-(7-(8-bromo-7-fluoro-3-hydroxynaphthalen-1-yl)-2-(((2R,7aS)-2-fluorotetrahydro-1H-pyrrolizin-7a(5H)-yl)methoxy)-5,6,7,8-tetrahydropyrido[3,4-d]pyrimidin-4-yl)-3-methylpiperidin-3-ol], the IC50 is not above 2 nM in test [1]; not above 2 nM in [2]; not above 2 nM in test [3]; 179 nM in test [4]; 352 nM in [5]; 530 nM in [6]. Also, the results for the concentration for half-maximal inhibition (IC50) in test [7], in test [8] and in [9] were 672 nM, 37 nM and 2820 nM, respectively.
As for `O=C1CC2(CCCN(c3nc(OC[C@@]45CCCN4C[C@H](F)C5)nc4c3CCN(c3cc(O)cc5ccc(F)c(Br)c35)C4)C2)N1` (stereo partly drawn) [Example 223, 6-(7-(8-bromo-7-fluoro-3-hydroxynaphthalen-1-yl)-2-(((2R,7aS)-2-fluorohexahydro-1H-pyrrolizin-7a-yl)methoxy)-5,6,7,8-tetrahydropyrido[3,4-d]pyrimidin-4-yl)-1,6-diazaspiro[3.5]nonan-2-one], the IC50 is not above 2 nM in [1]; not above 2 nM in [2]; not above 2 nM in [3]; 320 nM in test [4]; 325 nM in [5]; 234 nM in [6]. For the same compound, the half-maximal inhibitory concentration (IC50) in [8] came to 19 nM; in test [9], 607 nM.
